Data from patent US20090186915A1, “Compositions and methods for treatment of glioblastoma, gliosarcoma, NSCLC, and head and neck cancer” (Unibioscreen S. A., priority 2006, published 2009).
Like-named read-outs stand apart in the source and are kept apart here.

Assays:
DU-145 [1] = assay: MTT colorimetric assay, DU-145 cells; type: cell-based; conditions: Homo sapiens, 72 h, 3 days of culturing, mean of six determinations, read-out: IC50 (μM) In Vitro Growth Inhibition
Experimental: (§1) The overall growth of human cancer cell lines was determined by means of the calorimetric MTT (3-[4,5-dimethylthiazol-2-yl]-diphenyl tetrazolium bromide; Sigma) assay, as detailed previously.

[2] = test system: platelets, red and white blood cells; assay: Compound-induced hematotoxicity and tolerance in mice; type: in vivo; conditions: 20 mg/kg intra-venous, three times a week for five weeks
Experimental: We have determined the compound-induced potential hematotoxicity of the compound produced according to example 2 or example 7 on platelets, red and white blood cells in comparison of the effect of amonafide on platelets, red and white blood cells. The effect of amonafide was evaluated at 10 mg/kg and 20 mg/kg, by the intra-peritoneal administration to mice. The administration schedule was five times a week for three consecutive weeks. The effect of the compound produced according to example 2 or example 7 was evaluated at 20 mg/kg, by the intra-venous administration to mice. The administration schedule was three times a week (on Mondays, Wednesdays and Fridays) for five consecutive weeks. The animals were sacrificed 3 days after the last injection. There were 10 mice per group. FIG. 1 illustrates results of this assay for compound-induced hematotoxicity on platelets.

BxPC3 = assay: MTT overall cell growth, BxPC3 cells; type: cell-based; conditions: Homo sapiens
Experimental: Tests were performed in order to rapidly, i.e. within 5 days, measure the effect of the compound of example 2 on the overall cell growth. The test measures the number of metabolically active living cells that are able to transform the yellow product 3-(4,5-dimethylthiazol-2-yl)-2,5-diphenyl tetrazolium bromide (herein referred as MTT) into the blue product formazan dye by mitochondrial reduction. The amount of formazan obtained at the end of the experiment, measured by means of a spectrophotometer, is directly proportional to the number of living cells. Optical density determination thus enables a quantitative measurement of the effect of the investigated compounds as compared to the control condition (untreated cells) and/or to other reference compounds.
Six human cancer cell lines described in table 1 were used in the following MTT tests. These cell lines cover six histological cancer types, being prostate, glioma, pancreas, colon, lung and breast cancers. Cells were allowed to grow in 96 well micro-wells with a flat bottom with an amount of 100 μl of cell suspension per well with 1,000 to 4,000 cells/well depending on the cell type used. Each cell line was seeded in a well known MEM 10% serum culture medium. […]
After 72 hours of incubation at 37° C. with (experimental conditions) or without (control condition) the compound to be tested, the medium was replaced by 100 μl MTT dissolved in RPMI (1640 without phenol red) at a concentration of 1 mg/ml. […] The micro-wells were shaken for 5 minutes and read on a spectrophotometer at wavelengths of 570 nm (maximum formazan absorbance) and 630 nm (back-ground noise).
For each experimental condition, the mean optical density was calculated, as well as the percentage of remaining living cells in comparison with the control.
as §1

[3] = test system: human PC-3 orthotopic xenografts
Experimental: Orthotopic xenografts were obtained by injecting 2.5×10^6 human PC-3 or DU-145 cells into the prostate of 6-week-old male nu/nu mice (n=9 animals per treatment group). All grafts were performed under anesthesia [saline/Rompun (Bayer, Leverkusen, Germany)/Imalgene (Merial, Lyons, France); 5:1:1 by volume]. The end point in these orthotopic experiments was the survival period of the tumor-bearing mice after the administration of UNBS3157, UNBS5162, or reference anticancer agents (taxol, mitoxantrone, and amonafide). However, for ethical reasons, animals were killed when 20% of body weight had been lost compared to that determined at the time of tumor grafting. All animals were weighed three times a week. […] In the case of UNBS5162 experiments in the PC-3 model, after the sacrifice of animals, tumors were removed from both drug-treated [10 mg/kg, intravenous (i.v.)] and vehicle-treated mice, fixed in buffered formalin, embedded in paraffin, and 5-μm-thick sections taken. These histologic slides were then stained with hematoxylin and eosin for blood vessel counts.

DU-145 [4] = assay: Quantitative videomicroscopy, DU-145; type: cell-based, human; conditions: 1 μM
Experimental: Use was made of computer-assisted phase-contrast microscopy (quantitative videomicroscopy) in the attempt to elucidate an overall picture of UNBS5162's mechanism of action. […] In addition, 10 μM UNBS5162 caused a marked enlargement in PC-3 cells by the end of the 6-day treatment period compared with the start of the experiment.

P-glycoprotein = assay: P-gp ATPase activity (P-gp Drug interaction Assay Kit); type: biochemical
Experimental: In order to test drug interaction with P-glucoprotein (herein-after referred as P-gp) we used an assay based on the study of modulation of ATPase activity from enriched P-gp membrane vesicle preparation (the following kit has been used: P-gp Drug interaction Assay Kit commercially available from SPI BIO France). P-gp ATPase activity was measured by a spectrophotometric method based on monitoring of ADP formation in the vesicle suspension medium. The basal ATPase activity was defined as the activity determined in the absence of any added drug. […]

[5] = test system: glioma Hs683 and U373 cells; assay: Cell cycle kinetics by flow cytometry, glioma cells; type: cell-based, human
Experimental: The cell cycle kinetics of glioma Hs683 (ATCC code HTB-138) and U373 (ATCC code HTB-17) cells left untreated or incubated with UNBS5162 as indicated were determined by flow cytometry analysis of propidium iodide (PI) nuclear staining, using previously detailed methodology (Mijatovic et al. Neoplasia 2006, 2008). Each sample was evaluated in triplicate. Flow cytometry was undertaken using an Epics XL.MCL flow cytometer and the F ACScan/CellQuest software system (Becton Dickinson, Miami, Fla., USA).

## CN(C)CCN1C(=O)c2cccc3cc(NC(N)=O)cc(c23)C1=O [UNBS5162, N-{2-[2-(dimethylamino)ethyl]-1,3-dioxo-2,3-dihydro-1H-benzo[de]isoquinolin-5-yl}urea]
DU-145 [1]
  IC50: 16 µM
[2]
  tolerance of chronic administrations: tolerated 15 chronic administrations
BxPC3; BXPC-3, 72 h, Bx-PC-3, 3 days of culturing, mean of six determinations, read-out: IC50 (μM) In Vitro Growth Inhibition
  IC50: 9.1 µM
BxPC3; BXPC-3, BxPC3, 72 hours incubation, range of molar concentrations, read-out: IC50
  IC50: 5 to 10 µM
[3]; PC-3 orthotopic model, 10 mg/kg i.v.
  angiogenesis in tumors (histopathology, blood vessel counts): anti-angiogenic properties in vivo
[3]; PC-3 orthotopic model, 10 mg/kg i.v. three times a week for 6 consecutive weeks
  therapeutic benefit (survival): therapeutic benefits that were similar to repeat i.v. administration (once a week for 6 consecutive weeks) of 20-mg/kg taxol
[3]; PC-3 orthotopic model, UNBS5162 10 mg/kg i.v. at the same time as taxol 20 mg/kg i.v.
  therapeutic benefit (survival) in combination: significantly (P<0.01) increased the therapeutic benefit contributed by taxol alone
[3]; PC-3 orthotopic model, UNBS5162 before or after taxol
  therapeutic benefit (survival) in combination: did not modify the therapeutic benefit contributed by taxol alone
[3]; mouse, in vivo
  toxicity of combined treatment (mouse weight, behavior): did not contribute higher toxicity
DU-145 [4]
  cell dynamics (videomicroscopy): induced no detectable changes
P-glycoprotein; 100 μM (data not shown)
  modulation of Pgp ATPase activity: do not affect Pgp ATPase activity
P-glycoprotein; 2, 10, and 50 μM
  modulation of basal P-gp ATPase activity: does not affect ATPase activity
[5]; Hs683 and U373, 10 μM for 72 h
  cell cycle kinetics, G2 block: markedly blocked both Hs683 and U373 cells in their G2 cell cycle phase
[5]; glioma cells, 1 μM
  cell cycle kinetics: did not significantly modify glioma cell cycle kinetics
[5]; glioma cells, chronic 1 μM for five days
  cell cycle kinetics: did not notably modify glioma cell cycle kinetics
[5]; glioma cells, chronic 10 μM for five days
  cell death on chronic treatment: induced the death of all assayed cells before the end of experiment
